This is an account of results in patent publication US9604996B2 (Bayer Pharma Aktiengesellschaft, priority 2013, dated 2017).

Assay [1] concerns IL-6 release by human fibroblast cell line LL29. In words: NECA-induced IL-6 release by LL29 fibroblasts (ELISA). It counts as cell-based. Conditions: NECA 10 μM, 24 hours incubation, IL-6 ELISA of supernatant, in some cases means, rounded to two significant digits. How it is done:
B-2. Measurement of NECA-Induced IL-6 Release by LL29 Fibroblasts
Stimulation of fibroblasts with adenosine or the adenosine analog 5′-N-ethylcarboxamidoadenosine (NECA) leads to release of the pro-inflammatory and pro-fibrotic cytokine IL-6 which can be prevented by inhibition of the A2b receptor.
Accordingly, confluent cells of the human fibroblast cell line LL29 were treated with the test substances and stimulated with NECA (10 μM). After an incubation time of 24 hours, the cell supernatant is removed and human IL-6 in the cell supernatant is determined by ELISA (Quantikine® IL6 ELISA, R&D Systems, Minneapolis, USA).
In general terms: In an ELISA, binding on a coated surface is turned into a signal by an enzyme label.

In assay [2] the target is T1, human adenosine A2b receptor (Homo sapiens, UniProt P29275).
T1 construct: expressed in transfected cells; host or cells: CHO-K1 (Chinese Hamster Ovary) with CRE-luciferase reporter
T1 sequence (P29275 1-332): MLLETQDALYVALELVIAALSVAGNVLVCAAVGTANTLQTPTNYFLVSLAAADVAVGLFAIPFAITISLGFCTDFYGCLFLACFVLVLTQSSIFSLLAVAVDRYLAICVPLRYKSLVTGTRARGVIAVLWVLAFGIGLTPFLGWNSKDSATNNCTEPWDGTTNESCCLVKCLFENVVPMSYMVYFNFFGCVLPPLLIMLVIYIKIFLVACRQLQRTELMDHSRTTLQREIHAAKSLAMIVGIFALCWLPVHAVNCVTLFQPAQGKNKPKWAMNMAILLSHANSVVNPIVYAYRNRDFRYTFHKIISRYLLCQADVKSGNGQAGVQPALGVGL
In words: Cellular reporter gene (CRE-luciferase) A2b receptor antagonist assay in recombinant CHO-K1 cells stimulated with NECA. It counts as cell-based. Conditions: recombinant CHO-K1 cell line, co-incubation with EC50 concentration of NECA, 3 hours, in some cases means, rounded to two significant digits. The procedure, abridged: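 CHO-K1 cells expressing human A2b receptor with a CRE-driven firefly luciferase reporter, co-incubated with test compound and NECA at its same-day EC50 concentration. Luminescence read 3 hours after NECA addition.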
On the technique in general: Reporter assays use an easily measured gene product as a stand-in for the process of interest.

As usually defined, the IC50 is the midpoint of a concentration-inhibition curve.

As to `Cc1c(C(=O)N2CCNC(=O)C2)sc2c1c(=O)n(CCc1cccnc1)c(=O)n2CCC(F)(F)F` [Example 33, 5-Methyl-6-[(3-oxopiperazin-1-yl)carbonyl]-3-[2-(pyridin-3-yl)ethyl]-1-(3,3,3-trifluoropropyl)thieno[2,3-d]pyrimidine-2,4(1H,3H)-dione], the IC50 amounted to 140 nM in assay [1] and 67 nM in assay [2].

`Cc1c(C(=O)N2CCC(O)CC2)sc2c1c(=O)n(CCc1ccccc1F)c(=O)n2CCC(F)(F)F` [Example 4, 3-[2-(2-Fluorophenyl)ethyl]-6-[(4-hydroxypiperidin-1-yl)carbonyl]-5-methyl-1-(3,3,3-trifluoropropyl)thieno[2,3-d]pyrimidine-2,4(1H,3H)-dione]: the values for the IC50 in assay [1] and in assay [2] were 39 nM and 25 nM, respectively.

As for `Cc1c(C(=O)N2CCC(O)CC2)sc2c1c(=O)n(CCc1ccccc1)c(=O)n2CCC(F)(F)F` [Example 1, 6-[(4-Hydroxypiperidin-1-yl)carbonyl]-5-methyl-3-(2-phenylethyl)-1-(3,3,3-trifluoropropyl)thieno[2,3-d]pyrimidine-2,4(1H,3H)-dione], the IC50 was 59 nM in assay [1] and 37 nM in assay [2].

Turning to `Cc1c(C(=O)N2CCC(O)CC2)sc2c1c(=O)n(CCc1ccncc1)c(=O)n2CCC(F)(F)F` [Example 54, 6-[(4-Hydroxypiperidin-1-yl)carbonyl]-5-methyl-3-[2-(pyridin-4-yl)ethyl]-1-(3,3,3-trifluoropropyl)thieno[2,3-d]pyrimidine-2,4(1H,3H)-dione], the IC50 in assay [1] was 330 nM; in assay [2], 76 nM.

On to `CCn1c(=O)c2c(C)c(C(=O)N3CCNC(=O)C3)sc2n(CCC(F)(F)F)c1=O` [Example 35, 3-Ethyl-5-methyl-6-[(3-oxopiperazin-1-yl)carbonyl]-1-(3,3,3-trifluoropropyl)thieno[2,3-d]pyrimidine-2,4(1H,3H)-dione], for which the values for the IC50 in assay [1] and in assay [2] were 250 nM and 120 nM, respectively.

On to `Cc1c(C(=O)N2CCNC(=O)C2)sc2c1c(=O)n(CCc1ccccc1Cl)c(=O)n2CCC=C(F)F` [Example 32, 3-[2-(2-Chlorophenyl)ethyl]-1-(4,4-difluorobut-3-en-1-yl)-5-methyl-6-[(3-oxopiperazin-1-yl)carbonyl]thieno[2,3-d]pyrimidine-2,4(1H,3H)-dione], for which the IC50 in assay [1] was found to be 230 nM; in assay [2] it was 110 nM.

Regarding `CCc1c(C(=O)N2CCC(O)(CO)CC2)sc2c1c(=O)n(CC)c(=O)n2CCC(F)(F)F` [Example 89, 3,5-Diethyl-6-{[4-hydroxy-4-(hydroxymethyl)piperidin-1-yl]carbonyl}-1-(3,3,3-trifluoropropyl)thieno[2,3-d]pyrimidine-2,4(1H,3H)-dione], the IC50 in assay [1] was 48 nM; in assay [2], 35 nM.

As for `CCn1c(=O)c2c(C)c(C(=O)N3CCC(C)(O)CC3)sc2n(CCC(F)(F)F)c1=O` [Example 21, 3-Ethyl-6-[(4-hydroxy-4-methylpiperidin-1-yl)carbonyl]-5-methyl-1-(3,3,3-trifluoropropyl)thieno [2,3-d]pyrimidine-2,4(1H,3H)-dione], the results for the IC50 in assay [1] and in assay [2] were 69 nM and 25 nM, respectively.

In the case of `O=C1CN(C(=O)c2sc3c(c2C(F)(F)F)c(=O)n(CCc2ccccc2)c(=O)n3CCC(F)(F)F)CCN1` [Example 41, 6-[(3-Oxopiperazin-1-yl)carbonyl]-3-(2-phenylethyl)-5-(trifluoromethyl)-1-(3,3,3-trifluoropropyl)thieno[2,3-d]pyrimidine-2,4(1H,3H)-dione], the IC50 was found to be 29 nM in assay [1] and 26 nM in assay [2].

For the compound `Cc1ccccc1CCn1c(=O)c2c(C)c(C(=O)N3CCC(O)CC3)sc2n(CCC(F)(F)F)c1=O` [Example 8, 6-[(4-Hydroxypiperidin-1-yl)carbonyl]-5-methyl-3-[2-(2-methylphenyl)ethyl]-1-(3,3,3-trifluoropropyl)thieno[2,3-d]pyrimidine-2,4(1H,3H)-dione], the IC50 was 34 nM in assay [1] and 20 nM in assay [2].

Consider `Cc1c(C(=O)N2CCC(O)CC2)sc2c1c(=O)n(CCc1cccnc1)c(=O)n2CCC=C(F)F` [Example 16, 1-(4,4-Difluorobut-3-en-1-yl)-6-[(4-hydroxypiperidin-1-yl)carbonyl]-5-methyl-3-[2-(pyridin-3-yl)ethyl]thieno[2,3-d]pyrimidine-2,4(1H,3H)-dione], for which the IC50 came to 89 nM in assay [1] and 38 nM in assay [2].
